Experimental data: patent US7282507B2, “Indole derivatives as selective androgen receptor modulators (SARMS)” (Janssen Pharmaceutica N.V., priority 2004, dated 2007)
Where “and” joins values, the source holds several entries; their conditions need not be identical. Equal entries are not always repeated. Where two headings read alike, the source gives them in different places.

What was measured:
[1] = molecular target: T1, androgen receptor (rat ventral prostate cytosol) (Rattus norvegicus, UniProt P15207); assay: Androgen Receptor Binding Using Rat Ventral Prostate Cytosol; conditions: for inhibition at 1 µM: read-out: % Inhibition, Androgen Receptor Binding (Rat Cytosol); for IC50: read-out: IC50 (nM), Androgen Receptor Binding (Rat Cytosol)
T1 construct: from tissue; host or cells: ventral prostate cytosol of castrated male Sprague Dawley or Wistar rats
T1 sequence (P15207 1-902): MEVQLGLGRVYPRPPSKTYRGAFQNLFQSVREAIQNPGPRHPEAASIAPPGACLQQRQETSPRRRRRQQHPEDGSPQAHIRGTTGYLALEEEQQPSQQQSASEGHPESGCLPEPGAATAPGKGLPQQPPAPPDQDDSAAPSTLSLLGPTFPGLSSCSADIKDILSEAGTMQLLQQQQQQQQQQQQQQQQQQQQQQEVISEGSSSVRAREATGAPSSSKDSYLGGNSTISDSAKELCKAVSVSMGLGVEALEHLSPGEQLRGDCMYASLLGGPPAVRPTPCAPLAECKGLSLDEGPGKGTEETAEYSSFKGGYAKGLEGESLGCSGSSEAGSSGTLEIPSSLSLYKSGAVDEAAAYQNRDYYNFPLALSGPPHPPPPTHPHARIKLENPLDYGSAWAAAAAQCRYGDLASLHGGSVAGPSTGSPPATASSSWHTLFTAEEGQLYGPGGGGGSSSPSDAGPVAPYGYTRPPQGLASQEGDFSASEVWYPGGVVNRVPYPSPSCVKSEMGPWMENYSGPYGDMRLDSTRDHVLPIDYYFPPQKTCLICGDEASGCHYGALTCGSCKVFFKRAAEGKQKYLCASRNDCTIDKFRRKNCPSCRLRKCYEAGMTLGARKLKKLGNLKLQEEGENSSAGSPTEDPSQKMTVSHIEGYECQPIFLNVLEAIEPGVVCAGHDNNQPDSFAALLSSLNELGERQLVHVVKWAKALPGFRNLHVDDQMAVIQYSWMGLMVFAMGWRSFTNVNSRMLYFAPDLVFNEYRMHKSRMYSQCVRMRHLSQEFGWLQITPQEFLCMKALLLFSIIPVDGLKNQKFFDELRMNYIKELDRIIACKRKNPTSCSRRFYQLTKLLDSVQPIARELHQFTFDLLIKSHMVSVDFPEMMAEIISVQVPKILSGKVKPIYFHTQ
Procedure, shortened: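 Cytosol from castrated rat ventral prostate was incubated overnight at 4°C with 0.5 nM [3H] tracer and compound in TED buffer (10 mM Tris-HCl pH 7.4, molybdate, EDTA, DTT, glycerol).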

[2] = molecular target: T2, androgen receptor LBD (Panvera) (Rattus norvegicus, UniProt P15207); assay: Androgen Receptor Filtration Binding Assay (PANVERA)
T2 construct: 5 pmol androgen receptor LBD (Panvera); purchased Panvera
T2 sequence (P15207 651-882 limits assumed): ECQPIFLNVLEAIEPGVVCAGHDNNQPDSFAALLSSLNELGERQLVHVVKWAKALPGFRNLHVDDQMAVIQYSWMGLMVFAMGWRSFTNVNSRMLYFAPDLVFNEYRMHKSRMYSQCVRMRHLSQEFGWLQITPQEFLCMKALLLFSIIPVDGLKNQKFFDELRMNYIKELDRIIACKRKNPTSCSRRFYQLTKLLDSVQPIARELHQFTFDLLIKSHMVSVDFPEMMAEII
Experimental: The assay was run on a 96 well plate with each well filled with a total reaction volume 150 μL, of a solution containing 5 pmol androgen receptor LBD (Panvera) or 30 μL of freshly prepared rat cytosol, 0.5 nM [^3H] […] (TED buffer contains 10 mM Tris.HCl pH 7.4, 1 mM sodium molybdate, 1.5 mM EDTA, 1 mM DTT and 10% (v/v) glycerol.)
On day one, the solution containing receptor, tracer and TED buffer was distributed into a 96 well plate. Diluted test compound or control vehicle was then added to individual wells and the plate incubated at 4° C. overnight.
On day two, to each well was then added 20 μL human γ-globulin (ICN 823102), prepared at 25 mg/ml in TE pH 8.0, and 55 μL 40% polyethylene glycol 8000 (J T Baker U222-08), prepared in TE pH 8.0. The plate was incubated at 4° C. for 60 minutes. During incubation, the harvester was rinsed with 10% PEG 8000, prepared in TE pH 8.0, and a GF/C Unifilter-96 was pre-wet with 10% PEG. The binding reaction was filtered, the retentate was washed three times with 10% PEG and dried under vacuum for a couple of minutes, then dried at 50° C. for 5 min and the plate was bottom sealed. Next, 25 μL of Microscint-20 (Packard) was added to the filter wells and the plate was top sealed. The plate wells were then counted on a TopCount (Packard).
Counts per well were measured and IC50s determined by linear regression.

[3] = [3H] R1881 tracer 0.5 nM, read-out: IC50 (nM), Androgen Receptor Binding (Panvera)
[4] = IC50 (nM), Androgen Receptor Binding (Panvera)
[5] = read-out: IC50 (nM), Androgen Receptor Binding (Panvera)

## CC(O)(CSC1CCCCC1)c1cc2nc(C(F)(F)F)ccc2[nH]1 (racemic) [Compound 1]
[1]; Concentration 1000 nM
  inhibition at 1 µM: 22%
[2]; [3]
  IC50: 14000 nM

## O=C(c1ccc(Cl)cc1)N1CCC(O)(c2cc3cc(Cl)c(C(F)(F)F)cc3[nH]2)CC1 [Compound 25]
[1]; Concentration 1000 nM
  % Inhibition, Androgen Receptor Binding (Rat Cytosol): −83.5%
[2]; [3]
  IC50: 8800 nM

## CC(O)(COC(=O)c1ccccc1)c1cc2cc(C#N)c(C(F)(F)F)cc2[nH]1 (stereo not shown) [Compound 75]
[1]
  inhibition at 1 µM: 13.2%
[2]; [4]
  IC50: 9100 nM

## CC(O)(C[S+]([O-])c1ccc(F)cc1)c1cc2cc(Cl)c(C(F)(F)F)cc2[nH]1 (stereo not shown) [Compound 114]
[1]; Concentration 1000 nM, 1 µM
  % Inhibition, Androgen Receptor Binding (Rat Cytosol): 61%
[2]; [3]
  IC50: 4900 nM

## CC(O)(CSc1ccc(F)cc1)c1cc2cc(Cl)ccc2n1S(C)(=O)=O (stereo not shown) [Compound 99]
[1]; Concentration 1000 nM
  inhibition at 1 µM: 8.5%
[2]; [3]
  IC50: 5750 nM

## CC(O)(C[S+]([O-])c1ccccc1)c1cc2cc(Cl)c(C(F)(F)F)cc2[nH]1 (stereo not shown) [Compound 112]
[1]; Concentration 1000 nM
  inhibition at 1 µM: 39.5%
[2]; [3]
  IC50: 4100 nM

## CC(O)(COC(=O)c1ccc(Cl)cc1)c1cc2cc([N+](=O)[O-])c(C(F)(F)F)cc2[nH]1 (stereo not shown) [Compound 55]
[1]; Concentration 1000 nM
  inhibition at 1 µM: 5.5%
[1]
  IC50: 180 nM
[2]; [3]
  IC50: 715 nM and 635 nM

## CC(O)(COC(=O)c1cccc(Cl)c1)c1cc2cc([N+](=O)[O-])c(C(F)(F)F)cc2[nH]1 (stereo not shown) [Compound 58]
[1]; Concentration 1000 nM
  inhibition at 1 µM: 79.5%
[2]; [5]
  IC50: 455 nM

## OC1(c2cc3cc(Cl)c(C(F)(F)F)cc3[nH]2)CCN(Cc2ccccc2)CC1 [Compound 22]
[1]
  IC50: > 7700 nM
[2]; [3]
  IC50: > 9600 nM

## O=C(OCc1ccccc1)N1CCC(O)(c2cc3cc(Cl)c(C(F)(F)F)cc3[nH]2)CC1 [Compound 20]
[1]; Concentration 1000 nM
  inhibition at 1 µM: -28.5%
[2]; [3]
  IC50: 23500 nM

## CC(O)(COC(=O)c1c(Cl)cccc1Cl)c1cc2cc([N+](=O)[O-])c(C(F)(F)F)cc2[nH]1 (stereo not shown) [Compound 52]
[1]; Concentration 1000 nM
  inhibition at 1 µM: 94.5%
[1]
  IC50: 79 nM
[2]; [3]
  IC50: 150 nM

## CC(C)(C)c1ccc(C(=O)OCC(C)(O)c2cc3cc([N+](=O)[O-])c(C(F)(F)F)cc3[nH]2)cc1 (stereo not shown) [Compound 80]
[1]; Concentration 1000 nM
  inhibition at 1 µM: -24.9%
[2]; [3]
  IC50: 6400 nM

## CC(O)(C[S+]([O-])c1ccc(Cl)c(Cl)c1)c1cc2cc(Cl)c(C(F)(F)F)cc2[nH]1 (stereo not shown) [Compound 117]
[1]; Concentration 1000 nM, 1 µM
  % Inhibition, Androgen Receptor Binding (Rat Cytosol): 32.5%
[2]; [3]
  IC50: 2000 nM

## CS(=O)(=O)n1c(C2(O)CCN(Cc3ccccc3)CC2)cc2cc(Cl)c(C(F)(F)F)cc21 [Compound 21]
[1]; Concentration 1000 nM
  % Inhibition, Androgen Receptor Binding (Rat Cytosol): −41.5%
[2]; [3]
  IC50: > 10200 nM

## CC(O)(COC(=O)c1ccc(Cl)c(Cl)c1)c1cc2cc(C#N)c(C(F)(F)F)cc2[nH]1 (stereo not shown) [Compound 78]
[1]; Concentration 1000 nM
  inhibition at 1 µM: 16.6%
[2]; [3]
  IC50: 3560 nM

## CC(O)(COC(=O)c1ccccc1Cl)c1cc2cc([N+](=O)[O-])c(C(F)(F)F)cc2[nH]1 (stereo not shown) [Compound 54]
[1]
  inhibition at 1 µM: 5.5%
[2]; [4]
  IC50: 220 nM
[2]; [5]
  IC50: 465 nM

## CC(O)(CSc1ccc(Cl)cc1)c1cc2cc([N+](=O)[O-])c(C(F)(F)F)cc2o1 (racemic) [Compound 8]
[1]; Concentration 1000 nM
  inhibition at 1 µM: -2%
[2]; [3]
  IC50: 2650 nM

## CC(O)(CSc1ccc(Cl)c(Cl)c1)c1cc2cc([N+](=O)[O-])c(C(F)(F)F)cc2n1S(C)(=O)=O (stereo not shown) [Compound 91]
[1]; Concentration 1000 nM
  inhibition at 1 µM: 36%
[2]; [3]
  IC50: 1280 nM

## CC(O)(CSc1ccc(F)cc1)c1cc2nc(C(F)(F)F)ccc2[nH]1 (racemic) [Compound 5]
[1]; Concentration 1000 nM
  inhibition at 1 µM: 5.5%
[2]; [3]
  IC50: 39000 nM

## CC(O)(CSc1ccc(F)cc1)c1cc2cc(C#N)c(C(F)(F)F)cc2[nH]1 (stereo not shown) [Compound 109]
[1]; Concentration 1000 nM
  inhibition at 1 µM: 49%
[2]; [3]
  IC50: 2600 nM

## Cc1ccc(C(=O)OCC(C)(O)c2cc3cc([N+](=O)[O-])c(C(F)(F)F)cc3[nH]2)cc1 (stereo not shown) [Compound 69]
[1]; Concentration 1000 nM
  inhibition at 1 µM: 31%
[2]; [3]
  IC50: 1200 nM

## COC(=O)c1ccc2c(c1)cc(C(C)(O)CSc1ccccc1)n2S(C)(=O)=O (stereo not shown) [Compound 81]
[1]; Concentration 1000 nM
  inhibition at 1 µM: 5.2%
[2]; [3]
  IC50: 15000 nM

## CC(O)(CSc1ccc(Cl)cc1)c1cc2cc(Cl)ccc2n1S(C)(=O)=O (stereo not shown) [Compound 101]
[1]; Concentration 1000 nM
  inhibition at 1 µM: -24.9%
[2]; [3]
  IC50: 3850 nM

## CC(O)(CSc1ccccc1Cl)c1cc2cc(Cl)c(C(F)(F)F)cc2[nH]1 (stereo not shown) [Compound 84]
[1]; Concentration 1000 nM
  inhibition at 1 µM: 86%
[1]
  IC50: 240 nM
[2]; [3]
  IC50: 180 nM

## CC(O)(COC(=O)c1ccccc1)c1cc2cc(Cl)c(C(F)(F)F)cc2[nH]1 (stereo not shown) [Compound 61]
[1]; Concentration 1000 nM
  inhibition at 1 µM: 73%
[2]; [3]
  IC50: 440 nM

## CC(O)(CCl)c1cc2nc(C(F)(F)F)ccc2n1S(C)(=O)=O (stereo not shown) [Compound 4]
[1]; Concentration 1000 nM
  inhibition at 1 µM: 10.8%
[2]; [3]
  IC50: 7600 nM

## CC(O)(COC(=O)c1ccc(Cl)cc1)c1cc2cc(C#N)c(C(F)(F)F)cc2[nH]1 (stereo not shown) [Compound 76]
[1]; Concentration 1000 nM
  inhibition at 1 µM: -30.5%
[2]; [3]
  IC50: 1240 nM

## CC(O)(CSc1ccc(F)cc1)c1cc2ccccc2n1S(C)(=O)=O (stereo not shown) [Compound 107]
[1]; Concentration 1000 nM
  inhibition at 1 µM: 1.5%
[2]; [3]
  IC50: 9400 nM

## CC(O)(CSc1ccc(Cl)cc1)c1cc2cc(Cl)ccc2[nH]1 (stereo not shown) [Compound 102]
[1]; Concentration 1000 nM
  inhibition at 1 µM: 73.5%
[1]
  IC50: 140 nM
[2]; [3]
  IC50: 665 nM

## CC(O)(CSc1ccc(F)cc1)c1cc2cc(Cl)c(C(F)(F)F)cc2[nH]1 (stereo not shown) [Compound 83]
[1]; Concentration 1000 nM
  inhibition at 1 µM: 69%
[1]
  IC50: 120 nM
[2]; [3]
  IC50: 160 nM and 545 nM

## CN(C)c1ccc(C(=O)OCC(C)(O)c2cc3cc([N+](=O)[O-])c(C(F)(F)F)cc3[nH]2)cc1 (stereo not shown) [Compound 67]
[1]; Concentration 1000 nM
  inhibition at 1 µM: 25.5%
[2]; [3]
  IC50: 3000 nM

## CC(O)(CSc1ccccc1)c1cc2cc(C#N)c(C(F)(F)F)cc2[nH]1 (stereo not shown) [Compound 95]
[1]; Concentration 1000 nM
  inhibition at 1 µM: 56.5%
[2]; [3]
  IC50: 3000 nM

## CC(O)(CSc1ccc(F)cc1)c1cc2cc(Cl)ccc2[nH]1 (stereo not shown) [Compound 100]
[1]; Concentration 1000 nM
  inhibition at 1 µM: 80%
[2]; [3]
  IC50: 1160 nM

## CC(O)(CSc1ccc(Cl)cc1)c1cc2ccccc2n1S(C)(=O)=O (stereo not shown) [Compound 88]
[1]; Concentration 1000 nM
  inhibition at 1 µM: -17.4%
[2]; [3]
  IC50: 5150 nM

## COC(=O)c1ccc2c(c1)cc(C(C)(O)CSC1CCCCC1)n2S(C)(=O)=O (stereo not shown) [Compound 93]
[1]; Concentration 1000 nM
  inhibition at 1 µM: 35%
[2]; [3]
  IC50: 23000 nM
